These results are taken from ChEMBL document CHEMBL1124522, “Synthesis and antitumor activity of 5-deaza-5,6,7,8-tetrahydrofolic acid and its N10-substituted analogues” (J Med Chem, 1989).

Structures are written as SMILES. Values joined by “and” are separate entries in the source; they are usually repeats but may differ in a detail not shown here. Identical values can stand only once.

One series relates to CCRF-CEM. As to the kind of experiment: Compound was tested for its antitumor activity against human lymphoblastic leukemic cells(CCRF-CEM) in vitro. It counts as functional, cell-based. The following applies: Homo sapiens, CCRF-CEM.
Series [1] concerns the target T1, Folylpolyglutamate synthase, mitochondrial (Mus musculus) (UniProt P48760).
T1 sequence (whole entry): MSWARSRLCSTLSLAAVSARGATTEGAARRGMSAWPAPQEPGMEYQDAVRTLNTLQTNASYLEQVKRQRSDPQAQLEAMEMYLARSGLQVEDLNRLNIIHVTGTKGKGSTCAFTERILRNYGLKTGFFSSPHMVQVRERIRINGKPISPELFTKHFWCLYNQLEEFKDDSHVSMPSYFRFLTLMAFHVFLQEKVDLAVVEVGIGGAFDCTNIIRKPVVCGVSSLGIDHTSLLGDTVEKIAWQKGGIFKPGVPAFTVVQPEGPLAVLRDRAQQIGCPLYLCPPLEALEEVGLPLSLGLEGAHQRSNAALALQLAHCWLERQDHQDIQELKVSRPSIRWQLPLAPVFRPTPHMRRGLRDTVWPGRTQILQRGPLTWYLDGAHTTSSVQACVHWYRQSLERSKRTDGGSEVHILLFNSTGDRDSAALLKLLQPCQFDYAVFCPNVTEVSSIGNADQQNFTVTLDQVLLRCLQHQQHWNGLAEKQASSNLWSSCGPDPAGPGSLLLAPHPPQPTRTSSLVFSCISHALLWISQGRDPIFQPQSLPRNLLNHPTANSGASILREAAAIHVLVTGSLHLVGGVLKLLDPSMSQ
The experiment in a line: First order catalytic rate folyl-poly-glutamate synthetase.

Series [2] has as its target T1, Folylpolyglutamate synthase, mitochondrial (Mus musculus). As to the kind of experiment: Apparent catalytic rate folyl-poly-glutamate synthetase.
Series [3] shares this target. The experiment in a line: Apparent catalytic rate constants (Km) owas determined from mouse liver Folyl-polyglutamate synthase.
For series [4] the target is unchanged. The experiment in a line: First order catalytic rate constants (k) was determined from mouse liver Folyl-polyglutamate synthase.
In series [5] the test system is 6C3HED. The experiment in a line: Percent inhibition against 6C3HED lymphosarcoma at dose 100 mg/kg in C3H mice. It counts as functional, Mus musculus.
A short description of series [6]: In vivo anti tumor activity (toxic/total) at dose 100 mg/kg in C3H mice with transplantable murine solid tumor 6C3HED lymphosarcoma, doses administered intraperitoneally on days 1,3,5,7 and 9;Compound was tested on 9 mice. It counts as functional, Mus musculus. Conditions: route intraperitoneal.
A short description of series [7]: In vivo antitumor activity (toxic/total) at dose 6.25 mg/kg in C3H mice with transplantable murine solid tumor C3H mammary adenocarcinoma, doses administered intraperitoneally on days 1,3,5,7 and 9;Compound was tested on 10 mice. Format: functional, Mus musculus. Conditions: route intraperitoneal.
Series [8] can be described thus: Percent inhibition against C3H mammary adenocarcinoma at dose 6.25 mg/kg in C3H mice. It counts as functional. The following applies: Mus musculus.
The nature of series [9]: Percent inhibition against C3H mammary adenocarcinoma at dose 50 mg/kg administered ip on days 1,3,5,7 and 9 in C3H mice. Format: functional. Conditions: Mus musculus, route intraperitoneal.
Series [10] in a line: In vivo antitumor activity (toxic/total) at dose 12.5 mg/kg in C3H mice with transplantable murine solid tumor C3H mammary adenocarcinoma, doses administered intraperitoneally on days 1,3,5,7 and 9;Compound was tested on 10 mice. It counts as functional, Mus musculus. The following applies: route intraperitoneal.
Series [11] deals with 6C3HED. The experiment in a line: Percent inhibition against 6C3HED lymphosarcoma at dose 50 mg/kg in C3H mice. It counts as functional, Mus musculus.
Series [12] can be described thus: In vivo antitumor avctivity (Toxic/total) at dose 50 mg/kg in C3H mice with transplantable murine solid tumor 6C3HED lymphosarcoma; Compound was tested on 10 mice. It counts as functional, Mus musculus.
Series [13] is described as follows: In vivo antitumor activity (toxic/total) at dose 25 mg/kg in C3H mice with transplantable murine solid tumor C3H mammary adenocarcinoma, doses administered intraperitoneally on days 1,3,5,7 and 9;Compound was tested on 10 mice. It counts as functional, Mus musculus. The following applies: route intraperitoneal.
Series [14] is described as follows: Percent inhibition against C3H mammary adenocarcinoma at dose 25 mg/kg in C3H mice;Compound was toxic. It counts as ADME, organism-based. The arrangement: dose 25 mg/kg. The following applies: mouse, in vivo.
Series [15] in a line: In vivo antitumor avctivity (Toxic/total) at dose 25 mg/kg in C3H mice with transplantable murine solid tumor 6C3HED lymphosarcoma; Compound was tested on 10 mice. Format: functional, Mus musculus.
Series [16] in a line: In vivo antitumor avctivity (Toxic/total) at dose 12.5 mg/kg in C3H mice with transplantable murine solid tumor 6C3HED lymphosarcoma; Compound was tested on 10 mice. Format: functional, Mus musculus.
Series [17] in a line: In vivo antitumor avctivity (Toxic/total) at dose 6 mg/kg in C3H mice with transplantable murine solid tumor 6C3HED lymphosarcoma; Compound was tested on 10 mice. It counts as functional, Mus musculus.
Series [18] is described as follows: In vivo antitumor activity (toxic/total) at dose 50 mg/kg in C3H mice with transplantable murine solid tumor C3H mammary adenocarcinoma; Compound was tested on 10 mice. Format: functional, Mus musculus.
A short description of series [19]: Percent inhibition against C3H mammary adenocarcinoma at dose 100 mg/kg administered ip on days 1,3,5,7 and 9 in C3H mice. Format: functional. Conditions: Mus musculus, route intraperitoneal.
Series [20] can be described thus: In vivo antitumor activity (toxic/total) at dose 12.5 mg/kg in C3H mice with transplantable murine solid tumor C3H mammary adenocarcinoma; Compound was tested on 10 mice. Format: functional, Mus musculus.
The nature of series [21]: Percent inhibition against C3H mammary adenocarcinoma at dose 50 mg/kg in C3H mice;Compound was toxic. Format: ADME, organism-based. More on the design: dose 50 mg/kg. Conditions: mouse, in vivo.
Series [22] can be described thus: Percent inhibition against C3H mammary adenocarcinoma at dose 25 mg/kg administered ip on days 1,3,5,7 and 9 in C3H mice. Format: functional. Conditions: Mus musculus, route intraperitoneal.
Series [23] can be described thus: In vivo anti tumor activity (toxic/total) at dose 50 mg/kg in C3H mice with transplantable murine solid tumor 6C3HED lymphosarcoma, doses administered intraperitoneally on days 1,3,5,7 and 9;Compound was tested on 10 mice. It counts as functional, Mus musculus. Conditions: route intraperitoneal.
A short description of series [24]: In vivo antitumor activity (toxic/total) at dose 25 mg/kg in C3H mice with transplantable murine solid tumor C3H mammary adenocarcinoma; Compound was tested on 10 mice. It counts as functional, Mus musculus.
The nature of series [25]: In vivo antitumor avctivity (Toxic/total) at dose 100 mg/kg in C3H mice with transplantable murine solid tumor 6C3HED lymphosarcoma; Compound was tested on 10 mice. Format: functional, Mus musculus.
The nature of series [26]: In vivo antitumor activity (toxic/total) at dose 100 mg/kg in C3H mice with transplantable murine solid tumor C3H mammary adenocarcinoma, doses administered intraperitoneally on days 1,3,5,7 and 9;Compound was tested on 10 mice. Conditions: route intraperitoneal. It counts as functional, Mus musculus.
Series [27] is described as follows: In vivo antitumor activity (toxic/total) at dose 6.25 mg/kg in C3H mice with transplantable murine solid tumor C3H mammary adenocarcinoma; Compound was tested on 10 mice. Format: functional, Mus musculus.
Series [28] has as its system 6C3HED. The experiment in a line: Percent inhibition against 6C3HED lymphosarcoma at dose 12.5 mg/kg in C3H mice. It counts as functional, Mus musculus.
A short description of series [29]: Percent inhibition against C3H mammary adenocarcinoma at dose 12.5 mg/kg administered ip on days 1,3,5,7 and 9 in C3H mice. It counts as functional. Conditions: Mus musculus, route intraperitoneal.
Series [30] can be described thus: In vivo antitumor activity (toxic/total) at dose 50 mg/kg in C3H mice with transplantable murine solid tumor C3H mammary adenocarcinoma, doses administered intraperitoneally on days 1,3,5,7 and 9;Compound was tested on 10 mice. It counts as functional, Mus musculus. Conditions: route intraperitoneal.
Series [31] is described as follows: In vivo anti tumor activity (toxic/total) at dose 25 mg/kg in C3H mice with transplantable murine solid tumor 6C3HED lymphosarcoma, doses administered intraperitoneally on days 1,3,5,7 and 9;Compound was tested on 10 mice. It counts as functional, Mus musculus. Conditions: route intraperitoneal.
Series [32] in a line: In vivo anti tumor activity (toxic/total) at dose 12.5 mg/kg in C3H mice with transplantable murine solid tumor 6C3HED lymphosarcoma, doses administered intraperitoneally on days 1,3,5,7 and 9;Compound was tested on 10 mice. Format: functional, Mus musculus. The following applies: route intraperitoneal.
The subject of series [33] is 6C3HED. The experiment in a line: Percent inhibition against 6C3HED lymphosarcoma at dose 25 mg/kg in C3H mice. Format: functional, Mus musculus.
Series [34] in a line: Percent inhibition against C3H mammary adenocarcinoma at dose 6.25 mg/kg administered ip on days 1,3,5,7 and 9 in C3H mice. Format: functional. Conditions: Mus musculus, route intraperitoneal.
For series [35], the system named is 6C3HED. The experiment in a line: Percent inhibition against 6C3HED lymphosarcoma at dose 6 mg/kg in C3H mice. It counts as functional. The following applies: Mus musculus.
Series [36] concerns 6C3HED. As to the kind of experiment: Percent inhibition against 6C3HED lymphosarcoma at dose 200 mg/kg in C3H mice. Format: functional. The following applies: Mus musculus.
A short description of series [37]: In vivo anti tumor activity (toxic/total) at dose 200 mg/kg in C3H mice with transplantable murine solid tumor 6C3HED lymphosarcoma, doses administered intraperitoneally on days 1,3,5,7 and 9;Compound was tested on 10 mice. It counts as functional, Mus musculus. The following applies: route intraperitoneal.
The target of series [38] is T1, Folylpolyglutamate synthase, mitochondrial (Mus musculus). As to the kind of experiment: Apparent catalytic rate constants (Km) was determined from mouse liver Folyl-polyglutamate synthase.

In the case of `CN(CC1CNc2nc(N)nc(O)c2C1)c1ccc(C(=O)N[C@@H](CCC(=O)O)C(=O)O)cc1` (stereo partly drawn), half-maximal inhibition in the series on CCRF-CEM (IC50) required 40 nM.
Same read-out and setting: the same measure for `CC(=O)N(CC1CNc2nc(N)nc(O)c2C1)c1ccc(C(=O)N[C@@H](CCC(=O)O)C(=O)O)cc1` (stereo partly drawn): 600 nM.
`Nc1nc(=O)c2nc(CNc3ccc(C(=O)N[C@@H](CCC(=O)O)C(=O)O)cc3)cnc2[nH]1` returned a k in series [1] of 1. Besides, the Km app in series [2] turned out to be 140 µM.
`Nc1nc(N)c2nc(CNc3ccc(C(=O)N[C@@H](CCC(=O)O)C(=O)O)cc3)cnc2n1`: the Km app in series [3] is 21 µM. Besides, in series [4], the k was 10.1.
`Nc1nc(O)c2c(n1)NCC(CNc1ccc(C(=O)N[C@@H](CCC(=O)O)C(=O)O)cc1)C2` (stereo in doubt; 7a) [listing 1 of 2 here]: the Inhibition – broadly, the relative decrease from the control value, in per cent – was 93% in the series with 6C3HED [5] (100 mg/kg); 100% and 74% in the series on 6C3HED [11]; “Toxic” in [14]; “Toxic” in series [21]; 100% and 34% with 6C3HED [28]; 100% and 51% in the series with 6C3HED [33]. In addition, the inhibition in vivo (in general, the percentage by which the read-out fell short of the control) at 100 mg/kg in the series on 6C3HED [5] (Mus musculus, 6C3HED) is 100%; in series [19], 94%. In addition, the tox/total in series [6] amounted to 0; in series [7] it was 0; in series [10] it was 0; in series [12], 6; in series [13] it was 0; in series [15], 3. Besides, the tox/total in series [16] was found to be 1; in series [17], 0; in series [18] it was 10; in series [20] it was 10; in [23], 0; in series [24], 10. For the same molecule, the tox/total is recorded as 9 in series [25]; 0 in [26]; 3 in series [27]; 0 in series [30]; 0 in series [31]; 0 in series [32]. The tox/total in series [37] worked out at 3. Moreover, the inhibition in vivo at 6.25 mg/kg in series [8] came to 96%; in series [34] it was 50%. Further, the inhibition in vivo at 50 mg/kg in series [9] was 81%. The inhibition in vivo at 25 mg/kg in series [22] is 64%. Further, in the series with CCRF-CEM, the IC50 (as a rule, the concentration that gives 50% inhibition) amounted to 10 nM. For the same molecule, in series [29], the inhibition in vivo at 12.5 mg/kg was determined as 61%. This molecule also had an inhibition in vivo at 6 mg/kg with 6C3HED [35] of 77%. The molecule also returned an inhibition in vivo at 200 mg/kg in the series with 6C3HED [36] of 98%.
For the molecule `Nc1nc(O)c2c(n1)NCC(CNc1ccc(C(=O)N[C@@H](CCC(=O)O)C(=O)O)cc1)C2` (stereo in doubt; 7a) [listing 2 of 2 here], the Km app in series [38] worked out at 1.06 µM. Also, in [4], the k stood at 170.
